Results on two compounds are retold here after patent US20070117770A1, “Human ribosomal DNA (rDNA) and ribosomal RNA (rRNA) nucleic acids and uses thereof” (Cylene Pharmaceuticals, Inc., priority 2005, published 2007).

Holding throughout (experiment): Protein kinase inhibition assay
The test system of one test is p70S6K(h). Type of test: biochemical, human. The conditions noted are these: 2.5 μM. As to the method: (§1) Certain compounds were tested for activity in protein kinase inhibition assays. All substrates were dissolved and diluted to working stocks in de-ionized water, apart from histone H1 (10× working stock in 20 mM MOPS pH 7.0), PDKtide (10× working stock in 50 mM Tris pH 7.0) ATF2 (which is typically stored at a 20× working stock in 50 mM Tris pH 7.5, 150 mM NaCl, 0.1 mM EGTA, 0.03% Brij-35, 50% glycerol, 1 mM benzamidine, 0.2 mM PMSF and 0.1% R-mercaptoethanol), KKLNRTLSFAEPG (SEQ ID NO:203) and RRRLSFAEPG (SEQ ID NO:204) (50 mM HEPES pH 7.4) and GGEEEEYFELVKKKK (SEQ ID NO:205) (20 mM MOPS pH 7.0). All kinases were pre-diluted to a 10× working concentration prior to addition into the assay. The composition of the dilution buffer for each kinase is detailed below.
(§2) In a final reaction volume of 25 μl, p70S6K (h) (5-10 mU) is incubated with 8 mM MOPS pH 7.0, 0.2 mM EDTA, 100 μM KKRNRTLTV (SEQ ID NO:212), 10 mM MgAcetate and [gamma-33P-ATP] (specific activity approx. 500 cpm/pmol, concentration as required). The reaction is initiated by the addition of the MgATP mix. After incubation for 40 minutes at room temperature, the reaction is stopped by the addition of 5 μl of a 3% phosphoric acid solution. 10 μl of the reaction is then spotted onto a P30 filtermat and washed three times for 5 minutes in 75 mM phosphoric acid and once in methanol prior to drying and scintillation counting.

For the next test, the target named is PKCθ(h) (Homo sapiens, UniProt Q04759). Type of test: biochemical. The conditions noted are these: read-out: percent residual activity of PKCθ(h). The procedure:
as §1
as §2, with “PKCθ” for “p70S6K”, “0.1 mg/ml histone H1,” for “100 μM KKRNRTLTV (SEQ ID NO:212),”

The target of another test is SGK3(h) (Homo sapiens, UniProt Q96BR1). The class given is biochemical. The note with it: read-out: percent residual activity of SGK3(h). The procedure: as §1
as §2, with “SGK3” for “p70S6K”, “250” for “100”, “GRPRTSSFAEGKK” for “KKRNRTLTV”, “NO:226),” for “NO:212),”

In the next test the target is ZIPK(h) (Homo sapiens, UniProt O43293). The class given is biochemical. The conditions noted are these: read-out: percent residual activity of ZIPK(h). The procedure: as §1
as §2, with “ZIPK” for “p70S6K”, “250” for “100”, “KKLNRTLSFAEPG” for “KKRNRTLTV”, “NO:203),” for “NO:212),”

In the next test the target is Fyn(h) (Homo sapiens, UniProt P06241). Type of test: biochemical. The note with it: read-out: percent residual activity of Fyn(h). As to the method: as §1
In a final reaction volume of 25 μl, Fyn (h) (5-10 mU) is incubated with 50 mM Tris pH 7.5, 0.1 mM EGTA, 0.1 mM Na3VO4, 250 μM KVEKIGEGTYGVVYK (SEQ ID NO:220) (Cdc2 peptide), 10 mM MgAcetate and [gamma-33P-ATP] (specific activity approx. 500 cpm/pmol, concentration as required). The reaction is initiated by the addition of the MgATP mix. After incubation for 40 minutes at room temperature, the reaction is stopped by the addition of 5 μl of a 3% phosphoric acid solution. […]

The target of a further test is MKK4(m) (Mus musculus, UniProt P47809). Type of test: biochemical. The note with it: read-out: percent residual activity of MKK4(m). As to the method: as §1
The reaction is initiated by the addition of the MGATP. After incubation for 40 minutes at room temperature, 5 μl of this incubation mix is used to initiate a JNK1α1 (h) assay, which is exactly as described on page 11 of this book except that ATF2 is replaced with 250 μM peptide.

A further test deals with SGK2(h) (Homo sapiens, UniProt Q9HBY8). Type of test: biochemical. The conditions noted are these: read-out: percent residual activity of SGK2(h). The procedure:
as §1
as §2, with “SGK2” for “p70S6K”, “30” for “100”, “GRPRTSSFAEGKK” for “KKRNRTLTV”, “NO:226),” for “NO:212),”

Chain of SGK2(h) (Q9HBY8 whole entry): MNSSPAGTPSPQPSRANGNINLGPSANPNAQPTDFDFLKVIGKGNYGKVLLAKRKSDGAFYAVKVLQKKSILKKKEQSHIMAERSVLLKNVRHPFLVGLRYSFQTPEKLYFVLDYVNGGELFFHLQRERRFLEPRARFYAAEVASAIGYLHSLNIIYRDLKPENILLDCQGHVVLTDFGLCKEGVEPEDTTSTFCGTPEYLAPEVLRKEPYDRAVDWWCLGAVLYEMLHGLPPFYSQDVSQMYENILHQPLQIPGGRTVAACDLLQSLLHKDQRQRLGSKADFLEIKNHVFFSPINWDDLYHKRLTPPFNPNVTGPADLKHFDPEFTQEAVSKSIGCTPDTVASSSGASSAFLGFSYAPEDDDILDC
Chain of PKCθ(h) (Q04759 whole entry): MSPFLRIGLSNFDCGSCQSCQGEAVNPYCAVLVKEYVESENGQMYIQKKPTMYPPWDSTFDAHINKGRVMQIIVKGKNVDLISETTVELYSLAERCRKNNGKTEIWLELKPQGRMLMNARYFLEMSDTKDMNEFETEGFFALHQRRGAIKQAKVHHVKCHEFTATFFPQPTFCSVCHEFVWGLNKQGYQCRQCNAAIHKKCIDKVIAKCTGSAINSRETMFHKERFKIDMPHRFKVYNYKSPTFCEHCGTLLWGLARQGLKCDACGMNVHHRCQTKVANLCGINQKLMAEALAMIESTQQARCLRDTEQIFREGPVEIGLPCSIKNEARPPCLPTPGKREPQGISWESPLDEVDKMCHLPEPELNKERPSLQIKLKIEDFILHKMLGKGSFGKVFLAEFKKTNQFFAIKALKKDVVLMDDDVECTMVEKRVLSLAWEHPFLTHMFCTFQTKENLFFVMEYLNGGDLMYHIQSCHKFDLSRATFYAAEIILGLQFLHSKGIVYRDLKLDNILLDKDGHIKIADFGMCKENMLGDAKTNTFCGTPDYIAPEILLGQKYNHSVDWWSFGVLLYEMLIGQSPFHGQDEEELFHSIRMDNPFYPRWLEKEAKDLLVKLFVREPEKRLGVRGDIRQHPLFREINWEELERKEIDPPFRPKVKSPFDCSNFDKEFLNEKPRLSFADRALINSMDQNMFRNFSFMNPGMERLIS
Chain of Fyn(h) (P06241 whole entry): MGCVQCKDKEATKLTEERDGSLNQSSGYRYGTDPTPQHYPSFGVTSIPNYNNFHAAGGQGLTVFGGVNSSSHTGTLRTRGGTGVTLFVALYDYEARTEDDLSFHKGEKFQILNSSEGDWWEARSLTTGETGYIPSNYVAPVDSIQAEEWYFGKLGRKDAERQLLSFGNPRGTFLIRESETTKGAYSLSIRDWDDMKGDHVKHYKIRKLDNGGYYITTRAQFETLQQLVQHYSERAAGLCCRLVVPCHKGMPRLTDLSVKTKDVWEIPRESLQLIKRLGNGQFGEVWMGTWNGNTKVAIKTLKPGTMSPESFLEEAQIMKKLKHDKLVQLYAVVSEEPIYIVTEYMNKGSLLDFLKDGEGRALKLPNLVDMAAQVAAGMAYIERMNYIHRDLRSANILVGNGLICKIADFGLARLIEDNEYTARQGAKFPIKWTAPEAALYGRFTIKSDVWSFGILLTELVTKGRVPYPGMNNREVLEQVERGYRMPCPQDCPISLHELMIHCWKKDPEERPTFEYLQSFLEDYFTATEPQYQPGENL
Chain of ZIPK(h) (O43293 whole entry): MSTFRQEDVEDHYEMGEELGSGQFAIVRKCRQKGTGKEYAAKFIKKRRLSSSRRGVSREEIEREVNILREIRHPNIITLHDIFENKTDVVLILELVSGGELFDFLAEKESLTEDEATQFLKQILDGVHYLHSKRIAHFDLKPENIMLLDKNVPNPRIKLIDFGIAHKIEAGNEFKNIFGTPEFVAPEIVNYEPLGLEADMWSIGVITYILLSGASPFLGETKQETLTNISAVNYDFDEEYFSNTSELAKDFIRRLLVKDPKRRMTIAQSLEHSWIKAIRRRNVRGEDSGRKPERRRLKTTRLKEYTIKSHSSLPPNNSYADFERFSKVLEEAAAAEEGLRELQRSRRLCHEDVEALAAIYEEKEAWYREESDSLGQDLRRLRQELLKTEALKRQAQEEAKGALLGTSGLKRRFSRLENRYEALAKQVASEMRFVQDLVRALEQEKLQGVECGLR
Chain of SGK3(h) (Q96BR1 whole entry): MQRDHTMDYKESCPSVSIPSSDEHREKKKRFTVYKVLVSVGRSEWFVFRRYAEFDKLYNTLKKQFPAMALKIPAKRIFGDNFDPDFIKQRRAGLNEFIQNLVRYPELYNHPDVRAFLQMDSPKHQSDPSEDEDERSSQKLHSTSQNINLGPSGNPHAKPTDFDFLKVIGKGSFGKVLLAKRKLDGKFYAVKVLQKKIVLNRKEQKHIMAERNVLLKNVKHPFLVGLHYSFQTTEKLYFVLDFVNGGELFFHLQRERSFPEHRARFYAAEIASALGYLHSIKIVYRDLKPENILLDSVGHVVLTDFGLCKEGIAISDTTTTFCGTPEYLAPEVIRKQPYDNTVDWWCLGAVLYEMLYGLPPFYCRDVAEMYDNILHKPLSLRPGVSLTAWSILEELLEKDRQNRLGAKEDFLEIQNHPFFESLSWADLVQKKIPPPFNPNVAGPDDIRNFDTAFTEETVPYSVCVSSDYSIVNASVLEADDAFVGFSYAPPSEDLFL
Chain of MKK4(m) (P47809 whole entry): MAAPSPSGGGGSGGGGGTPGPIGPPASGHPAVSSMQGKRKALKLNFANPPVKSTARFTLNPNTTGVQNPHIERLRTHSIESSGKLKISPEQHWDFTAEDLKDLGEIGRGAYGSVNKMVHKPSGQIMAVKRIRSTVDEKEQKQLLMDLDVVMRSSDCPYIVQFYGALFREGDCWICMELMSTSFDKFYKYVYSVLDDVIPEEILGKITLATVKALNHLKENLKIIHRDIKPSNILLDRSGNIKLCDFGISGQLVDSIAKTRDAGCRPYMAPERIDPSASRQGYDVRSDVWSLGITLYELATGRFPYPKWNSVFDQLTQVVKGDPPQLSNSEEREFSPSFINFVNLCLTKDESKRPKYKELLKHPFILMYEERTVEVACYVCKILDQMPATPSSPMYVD

On to `CN1CCCC1CCNC(=O)c1cn2c3c(c(N4CCC(c5cnccn5)C4)c(F)cc3c1=O)Oc1cc3ccccc3cc1-2` (stereo not drawn) [Compound A-1], for which the “inhibition of p70S6K” value in the test on p70S6K(h) is listed as “greater than 80%”. In the test with p70S6K(h), the “percent residual activity of p70S6K(h)” value is listed as 18%. In addition, the remaining activity at 2.5 µM came to 91% on PKCθ(h); 44% at SGK3(h); 27% on ZIPK(h); 97% on Fyn(h); 108% on MKK4(m); 38% on SGK2(h).
In the case of `CC(=O)N1CCN(c2ccc3c(=O)c(C(=O)NCCN4CCCC4)c4n(C)c5ccccc5n4c3n2)CC1` [Compound B-1], the “percent residual activity of p70S6K(h)” value in the test with p70S6K(h) came out at 97%. Besides, the remaining activity at 2.5 µM turned out to be 108% at PKCθ(h); 128% on SGK3(h); 116% at ZIPK(h); 85% on Fyn(h); 99% at MKK4(m); 104% at SGK2(h).
